The values below come from patent US8426447B2, “Spiro-tricyclic ring compounds as beta-secretase modulators and methods of use” (Amgen Inc., priority 2008, dated 2013).

Test [1] has as its target T1, BACE1 (Homo sapiens, UniProt P56817). In words: In Vitro Enzymatic BACE FRET (Fluorescence Resonance Energy Transfer) Assay. In kind it is biochemical. The method in brief: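 One-hour incubation initiated by 50 nM quenched FRET peptide spanning the BACE cleavage site, in 0.05 M acetate (pH 4.2), 100 uM genapol, 10% DMSO final. Tris addition neutralizes pH to end the reaction before fluorescence measurement.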

Test [2] concerns the target T1, BACE1. Briefly: In Vitro BACE Cell-based Assay (HEK cell assay): Aβ40 in conditioned medium of cells stably expressing Amyloid Precursor Protein, sandwich ELISA. The method in brief:
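Conditioned medium Aβ40 by ELISA: pAb40 capture 3 h 4° C., biotin-6E10 detection 2 h 4° C., Streptavidin-Europium TRF. IC50 fitted from % control.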

Where [3] appears, read: Table II, read-out: BACE1 FRET assay.
Setting [4] is: Table II, Aβ40, 24 h incubation, read-out: HEK cell assay.
The mark [5] stands for this setting: in vitro BACE FRET enzyme assay, IC50 class symbols, read-out: BACE1 FRET assay.
[6] abbreviates: HEK cell-based assay, Aβ40 in conditioned medium, IC50 class symbols, read-out: HEK cell assay.
Setting [7] is: Table IV, class symbols, read-out: BACE1 FRET assay.
[8] abbreviates: Table IV, class symbols, read-out: HEK cell assay.
The mark [9] stands for this setting: Table III, IC50's in uM ranges, read-out: BACE1 FRET assay.
Setting [10] is: Table III, IC50's in uM ranges, read-out: HEK cell assay.
The mark [11] stands for this setting: HEK cells, read-out: HEK cell assay.

Some results are limits rather than exact numbers.

T1 sequence (P56817 46-501, species assumed): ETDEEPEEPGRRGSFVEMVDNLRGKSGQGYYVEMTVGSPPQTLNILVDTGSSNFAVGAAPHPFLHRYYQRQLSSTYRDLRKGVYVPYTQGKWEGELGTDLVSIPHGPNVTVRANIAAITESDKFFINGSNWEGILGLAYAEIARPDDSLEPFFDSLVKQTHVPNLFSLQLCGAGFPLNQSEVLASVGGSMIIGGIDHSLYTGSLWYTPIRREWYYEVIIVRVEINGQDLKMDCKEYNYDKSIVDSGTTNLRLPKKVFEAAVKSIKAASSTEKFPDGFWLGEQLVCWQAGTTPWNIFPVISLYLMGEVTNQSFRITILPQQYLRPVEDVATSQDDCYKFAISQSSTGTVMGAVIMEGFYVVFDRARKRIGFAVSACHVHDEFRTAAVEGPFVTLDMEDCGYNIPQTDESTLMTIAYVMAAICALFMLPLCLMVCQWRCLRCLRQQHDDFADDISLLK

Consider `CC(C)(C)COc1ccc2c(c1)[C@]1(COC(N)=N1)c1cc(C#CC3CC3)cnc1O2` [compound 45], for which the IC50 in test [1] (setting [3]) is less than 0.1 µM; in test [2] (setting [4]), 0.1 to 1 µM.

For the molecule `NC1=N[C@@]2(CO1)c1cc(-c3cncc(F)c3)ccc1Oc1cnc(C3CCOCC3)cc12` [compound 331], the IC50 in test [1] (setting [5]) and in test [2] (setting [6]) was less than 0.1 µM in each case.

As to `NC1=N[C@]2(CO1)c1cnccc1Oc1ccc(-c3cccnc3)cc12` [compound 557], the IC50 was greater than 5 µM in test [1] (setting [7]) and 1 to 5 µM in test [2] (setting [8]).

For `COCC#Cc1ccc2c(c1)[C@]1(COC(N)=N1)c1cc(-c3cncnc3)ccc1O2` [156a], the IC50 in test [1] (setting [9]) and in test [2] (setting [10]) was less than 0.1 µM in each case.

Take `N#Cc1ccc(-c2ccc3c(c2)[C@@]2(COC(N)=N2)c2cc(-c4cccnc4)ccc2O3)cn1` [compound 683]: the IC50 in test [1] (read-out: BACE1 FRET assay) and in test [2] (read-out: HEK cell assay) was less than 0.1 µM each time.

Turning to `CC(C)(O)COc1ccc2c(c1)[C@]1(COC(N)=N1)c1cc(-c3cccnc3)ccc1O2` [Example 135, (S)-1-(2-amino-2′-(pyridin-3-yl)-5H-spiro[oxazole-4,9′-xanthene]-7′-yloxy)-2-methylpropan-2-ol], the IC50 in test [1] (setting [9]) and in test [2] (setting [10]) was less than 0.1 µM each time.

For `CC1(C#Cc2cnc3c(c2)[C@]2(COC(N)=N2)c2cc(-c4ccccc4F)ccc2O3)COC1` [compound 520], the IC50 in test [1] (read-out: BACE1 FRET assay) and in test [2] (setting [11]) was less than 0.1 µM each time.

Take `CC(C)(F)COc1cnc2c(c1)[C@]1(COC(N)=N1)c1cc(-c3ccc(F)nc3)ccc1O2` [compound 451]: the IC50 in test [1] (read-out: BACE1 FRET assay) and in test [2] (setting [11]) was less than 0.1 µM throughout.

Take `COCC[C@H]1CN(c2ccc3c(c2)[C@]2(COC(N)=N2)c2cc(-c4cccnc4)ccc2O3)CCO1` [compound 361]: the IC50 in test [1] (setting [5]) is 0.1 to 1 µM; in test [2] (setting [6]), less than 0.1 µM.

For the molecule `NC1=N[C@]2(CO1)c1cc(Br)ccc1Oc1c(F)cccc12` [compound 559], the IC50 in test [1] (setting [7]) and in test [2] (setting [8]) was greater than 5 µM each time.

Take `COC(=O)c1ccc2c(c1)[C@@]1(COC(N)=N1)c1cc(OCC(C)(C)C)ccc1O2` [compound 875]: the IC50 was less than 0.1 µM in test [1] (setting [7]) and 0.1 to 1 µM in test [2] (setting [8]).

Turning to `CC(C)(C)C[C@@H](F)c1ccc2c(c1)[C@]1(COC(N)=N1)c1cc(-c3cncnc3)ccc1O2` [116b, (4S)-2′-((1R)-1-fluoro-3,3-dimethylbutyl)-7′-(5-pyrimidinyl)spiro[1,3-oxazole-4,9′-xanthen]-2-amine], the IC50 in test [1] (setting [9]) is less than 0.1 µM; in test [2] (setting [10]) it was 0.1 to 1 µM.

For `Cc1cncc(-c2ccc3c(c2)[C@@]2(COC(N)=N2)c2cc(Cl)ncc2O3)c1` [compound 327], the IC50 in test [1] (setting [5]) fell in the range of 0.1 to 1 µM; in test [2] (setting [6]) it was 1 to 5 µM.

As to `COC1CN(c2ccc3c(c2)[C@]2(COC(N)=N2)c2cc(-c4cccnc4)ccc2O3)C1` [compound 604], the IC50 in test [1] (setting [7]) and in test [2] (setting [8]) was less than 0.1 µM each time.

Consider `CC(C)(C#N)COc1cnc2c(c1)[C@]1(COC(N)=N1)c1cc(-c3cc(F)ccc3F)ccc1O2` [compound 407], for which the IC50 in test [1] (setting [5]) and in test [2] (setting [6]) was less than 0.1 µM in each case.

As to `NC1=N[C@@]2(CO1)c1ccccc1Oc1ccc(-c3cc4ccccc4o3)cc12` [compound 587], the IC50 in test [1] (setting [7]) and in test [2] (setting [8]) was 1 to 5 µM throughout.

Take `CC(C)(C)/C=C/c1cc2c(cn1)Oc1ccc(-c3cccnc3F)cc1[C@@]21COC(N)=N1` [compound 514]: the IC50 in test [1] (read-out: BACE1 FRET assay) and in test [2] (setting [11]) was less than 0.1 µM in each case.

Take `CC(C)(C)C#Cc1ccc2c(c1)[C@@]1(COC(N)=N1)c1cc(-c3cccnc3)cnc1O2` [compound 160]: the IC50 in test [1] (setting [9]) and in test [2] (setting [10]) was less than 0.1 µM in each case.

As to `CC(C)(C)COc1ccc2c(c1)[C@]1(COC(N)=N1)c1cc(N3CCOCC3)ccc1O2` [Example 43, (4S)-2′-(2,2-dimethylpropoxy)-7′-(4-morpholinyl)spiro[1,3-oxazole-4,9′-xanthen]-2-amine], the IC50 in test [1] (setting [3]) and in test [2] (setting [4]) was 0.1 to 1 µM each time.

Consider `COc1cccc(-c2ccc3c(c2)[C@]2(COC(N)=N2)c2cc(-c4cncnc4)ccc2O3)c1` [compound 893], for which the IC50 in test [1] (setting [7]) was less than 0.1 µM; in test [2] (setting [8]), 0.1 to 1 µM.

Take `CC1(C)C=C(c2cc3c(cn2)Oc2ccc(-c4cccnc4F)cc2[C@@]32COC(N)=N2)CCO1` [compound 435]: the IC50 in test [1] (BACE1 FRET assay (uM)) was less than 0.1 µM; in test [2] (HEK cell assay (uM), HEK cells), less than 0.1 µM.

As for `NC1=N[C@@]2(CO1)c1cc(-c3cccnc3)ccc1Oc1cnc(/C=C/C3CC3)cc12` [compound 728], the IC50 in test [1] (read-out: BACE1 FRET assay) and in test [2] (read-out: HEK cell assay) was less than 0.1 µM in each case.

On to `Cc1nc(C)c(-c2ccc3c(c2)[C@@]2(COC(N)=N2)c2cc(OCC(C)(C)C)ccc2O3)s1` [compound 837], for which the IC50 in test [1] (setting [7]) is 0.1 to 1 µM; in test [2] (setting [8]), greater than 5 µM.

As to `NC1=N[C@@]2(CO1)c1cc(-c3cncnc3)ccc1Oc1ncc(C3=CCOCC3)cc12` [compound 805], the IC50 in test [1] (setting [7]) and in test [2] (setting [8]) was less than 0.1 µM each time.

On to `COc1ccc2c(c1)C1(COC(N)=N1)c1cc(-c3cccc(OC(F)(F)F)c3)ccc1O2` (stereo not drawn) [Example 22, 2′-methoxy-7′-(3-(trifluoromethoxy)phenyl)spiro[1,3-oxazole-4,9′-xanthen]-2-amine], for which the IC50 in test [1] (Table 1, read-out: BACE1 FRET assay) lay in the range of 1 to 5 µM; in test [2] (Table 1, Aβ40, 24 h incubation, read-out: HEK cell assay) it was 1 to 5 µM.

With `N#Cc1ccccc1Oc1ccc2c(c1)[C@]1(COC(N)=N1)c1cc(-c3cncnc3)ccc1O2` [compound 965], the IC50 is 0.1 to 1 µM in test [1] (read-out: BACE1 FRET assay) and greater than 5 µM in test [2] (read-out: HEK cell assay).

Take `CC(C)(F)COc1cc(F)c2c(c1)[C@]1(COC(N)=N1)c1cc(-c3cccnc3)ccc1O2` [compound 381]: the IC50 in test [1] (setting [5]) and in test [2] (setting [6]) was less than 0.1 µM throughout.

Consider `NC1=N[C@@]2(CO1)c1cc(-c3cncnc3)ccc1Oc1ccc(-c3ccc(F)nc3)cc12` [compound 991], for which the IC50 in test [1] (read-out: BACE1 FRET assay) and in test [2] (read-out: HEK cell assay) was less than 0.1 µM in each case.

Take `COc1ncc(-c2ccc3c(c2)[C@@]2(COC(N)=N2)c2cc(OCC(C)(C)C)ccc2O3)cn1` [compound 977]: the IC50 was 0.1 to 1 µM in test [1] (read-out: BACE1 FRET assay) and 1 to 5 µM in test [2] (read-out: HEK cell assay).

On to `NC1=N[C@@]2(CO1)c1cc(-c3ccccc3F)ccc1Oc1ncc(C3=CCOCC3)cc12` [compound 488], for which the IC50 in test [1] (read-out: BACE1 FRET assay) and in test [2] (setting [11]) was less than 0.1 µM in each case.

`CC(C)(C)OC(=O)CCc1ccc2c(c1)[C@]1(COC(N)=N1)c1cc(-c3cncnc3)ccc1O2` [compound 826]: the figures for the IC50 in test [1] (setting [7]) and in test [2] (setting [8]) were 0.1 to 1 µM and 1 to 5 µM, respectively.

In the case of `CN(C)C(=O)c1ccc2c(c1)[C@]1(COC(N)=N1)c1cc(OCC(C)(C)C)ccc1O2` [compound 799], the IC50 in test [1] (setting [7]) and in test [2] (setting [8]) was 0.1 to 1 µM throughout.

Turning to `CC(C)(C)OC(=O)/C=C/c1ccc2c(c1)[C@]1(COC(N)=N1)c1cc(-c3cncnc3)ccc1O2` [compound 994], the IC50 lay within 0.1 to 1 µM in test [1] (read-out: BACE1 FRET assay) and 1 to 5 µM in test [2] (read-out: HEK cell assay).

Regarding `Cc1ccc(-c2ccc3c(c2)[C@]2(COC(N)=N2)c2cc(-c4cncnc4)ccc2O3)cc1` [compound 226], the IC50 in test [1] (setting [9]) and in test [2] (setting [10]) was less than 0.1 µM throughout.

Consider `NC1=N[C@]2(CO1)c1cc(C#CCCO)ccc1Oc1ccc(-c3cccnc3)cc12` [compound 183], for which the IC50 in test [1] (setting [9]) and in test [2] (setting [10]) was less than 0.1 µM each time.

On to `CC1(C#Cc2cnc3c(c2)[C@]2(COC(N)=N2)c2cc(-c4cc(F)ccc4F)ccc2O3)COC1` [compound 519], for which the IC50 in test [1] (read-out: BACE1 FRET assay) and in test [2] (setting [11]) was less than 0.1 µM in each case.
